SMILES strings stand for the structures.

Data on twelve compounds can be found in patent US8518958B2, “Pyrido [2,3-D] pyrimidines and their use as kinase inhibitors” (Forma Therapeutics, Inc., priority 2006, dated 2013).

The target of test [1] is C-Raf Raf-1 (truncated), active (Homo sapiens, UniProt P04049, Y340D/Y341D). As to the kind of experiment: C-Raf kinase inhibition (MAPH assay / IMAP assay). Particulars: read-out: Biochemical IC50 C-Raf. The gist of the method:
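Truncated active human C-Raf (Y340D/Y341D), room temperature, top inhibitor concentration 10 μM in a dilution series for IC50. MAPH: 57.8 μM myelin basic protein with [γ-33P]ATP, kinase at 10% ATP turnover, 1 h, filter-bound radioactivity. IMAP: 400 nM fluorescent peptide, 20 mM Hepes pH 7.5 with 10 mM MnCl2, kinase at 50% turnover, fluorescence polarization.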

A further test concerns the target B-Raf delta1-415 (Homo sapiens, UniProt P15056). As to the kind of experiment: B-Raf kinase inhibition (MAPH filter plate, 33P-ATP, MEK1 substrate). Particulars: read-out: Biochemical IC50 B-Raf. In short, it runs like this:
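Radiometric filter-binding assay with B-Raf delta1-415 at a level giving 50% turnover, MEK1 substrate and 33P-ATP (12.5 μCi/ml) in 20 mM Mops pH 7.0 with Mg/Mn, 1 h at room temperature. Inhibitor dilution series from 10 μM; EDTA-stopped reactions captured on phosphocellulose filters, counted by scintillation for IC50.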

Another test deals with HT-29 tumor cells. As to the kind of experiment: Anti-proliferative activity, SRB assay. It is filed as cell-based, human. Particulars: Homo sapiens, HT-29, 72 h, 72 hours exposure, read-out: CELLULAR IC50 HT-29. The gist of the method: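 Cells at 3,000-15,000/well, plated 24 h before compound, exposed to a concentration range for 72 hours. Proliferation measured by SRB staining after cold TCA fixation, absorbance at OD570; IC50 estimated from % inhibition versus DMSO-treated cells.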
(In SRB staining, fixed cells bind dye roughly in proportion to their protein.)

Chain of C-Raf Raf-1 (truncated), active (P04049 306-648 Y340D/Y341D): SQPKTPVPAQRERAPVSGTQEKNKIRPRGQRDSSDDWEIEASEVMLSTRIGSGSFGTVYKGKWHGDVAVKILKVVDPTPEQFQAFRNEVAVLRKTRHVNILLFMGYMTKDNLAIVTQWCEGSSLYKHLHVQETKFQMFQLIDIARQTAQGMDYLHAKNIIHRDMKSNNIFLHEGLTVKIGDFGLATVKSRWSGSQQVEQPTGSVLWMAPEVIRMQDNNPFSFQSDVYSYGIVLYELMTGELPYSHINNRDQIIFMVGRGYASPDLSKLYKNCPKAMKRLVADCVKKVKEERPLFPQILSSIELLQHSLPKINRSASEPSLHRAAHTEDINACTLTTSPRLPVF
Chain of B-Raf delta1-415 (P15056 416-766): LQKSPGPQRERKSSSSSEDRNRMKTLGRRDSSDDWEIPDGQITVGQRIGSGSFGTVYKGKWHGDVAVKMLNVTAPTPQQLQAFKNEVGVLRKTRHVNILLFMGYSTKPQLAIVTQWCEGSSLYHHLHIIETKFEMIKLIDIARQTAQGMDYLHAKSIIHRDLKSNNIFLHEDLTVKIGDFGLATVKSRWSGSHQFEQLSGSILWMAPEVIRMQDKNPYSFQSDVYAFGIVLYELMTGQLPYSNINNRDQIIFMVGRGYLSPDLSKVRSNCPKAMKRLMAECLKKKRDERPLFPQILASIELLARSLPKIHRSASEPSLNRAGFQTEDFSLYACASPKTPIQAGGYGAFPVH

With `COn1c(=O)c(-c2c(Cl)cccc2Cl)cc2cnc(Nc3cc(C(=O)O)n(C)c3)nc21` [Compound 54, 2-(5-Carboxy-1-methyl-pyrrol-3-yl)-amino-6-(2,6-dichlorophenyl)-8-methoxy-pyrido[2,3-d]pyrimidin-7-one], the IC50 – broadly, the concentration at which inhibition is half-maximal – in test [1] was under 100 nM; on B-Raf delta1-415, under 500 nM; in the test with HT-29 tumor cells, under 10000 nM.
Take `COn1c(=O)c(-c2c(F)cccc2Cl)cc2cnc(Nc3cccc(CO)c3)nc21` [Compound 15, 6-(2-Chloro-6-fluorophenyl)-8-methoxy-2-(3-hydroxymethylphenylamino)-pyrido[2,3-d]pyrimidin-7-one]: the concentration for half-maximal inhibition (IC50) is under 100 nM in test [1], under 100 nM on B-Raf delta1-415 and under 1000 nM in the test on HT-29 tumor cells.
As for `COn1c(=O)c(-c2c(F)cccc2Cl)cc2cnc(Nc3cccc(S(N)(=O)=O)c3)nc21` [Compound 30, 6-(2-Chloro-6-fluorophenyl)-8-methoxy-2-(3-sulfamoylphenylamino)-pyrido[2,3-d]pyrimidin-7-one], the IC50 in test [1] is under 100 nM; at B-Raf delta1-415 it was under 100 nM; in the test with HT-29 tumor cells, under 1000 nM.
For the compound `COn1c(=O)c(-c2c(Cl)cccc2Cl)cc2cnc(N)nc21` [Compound 46, 2-Amino-6-(2,6-dichlorophenyl)-8-methoxy-pyrido[2,3-d]pyrimidin-7-one], the IC50 is under 100 nM in test [1], under 500 nM on B-Raf delta1-415 and under 10000 nM with HT-29 tumor cells.
`NCCCCCOn1c(=O)c(-c2c(Cl)cccc2Cl)cc2cnc(Nc3ccccc3)nc21` [Compound 56, 8-(5-Aminopentyl)oxy-6-(2,6-dichlorophenyl)-2-phenylamino-pyrido[2,3-d]pyrimidin-7-one]: the IC50 is under 100 nM in test [1], under 500 nM at B-Raf delta1-415 and under 1000 nM with HT-29 tumor cells.
As to `COn1c(=O)c(-c2cc(NC(=O)c3ccc(Cl)cc3)ccc2Cl)cc2cnc(Nc3ccccc3)nc21` [Compound 37], the 50% inhibitory concentration (IC50) is under 100 nM in test [1], over 1000 nM on B-Raf delta1-415 and under 10000 nM in the test with HT-29 tumor cells.
For the compound `COn1c(=O)c(-c2ccccc2Cl)cc2cnc(Nc3cccc(CO)c3)nc21` [Compound 5, 6-(2-Chlorophenyl)-8-methoxy-2-(3-hydroxymethylphenylamino)-pyrido[2,3-d]pyrimidin-7-one], the IC50 is under 100 nM in test [1], under 500 nM at B-Raf delta1-415 and under 1000 nM in the test with HT-29 tumor cells.
As to `COc1cccc(Nc2ncc3cc(-c4c(Cl)cccc4Cl)c(=O)n(OCCN)c3n2)c1` [Compound 70, 8-(2-Aminoethyl)oxy-6-(2,6-dichlorophenyl)-2-(3-methoxyphenyl)amino-pyrido[2,3-d]pyrimidin-7-one], the half-maximal inhibitory concentration (IC50) in test [1] is under 100 nM; at B-Raf delta1-415 it was under 500 nM; in the test on HT-29 tumor cells it was under 1000 nM.
Regarding `COc1ccc(OC)c(-c2cc3cnc(Nc4ccccc4)nc3n(OC)c2=O)c1` [Compound 60], the values for the concentration for half-maximal inhibition (IC50) (in test [1]; on B-Raf delta1-415; with HT-29 tumor cells) were under 500 nM, under 10000 nM and under 10000 nM, respectively.
`COn1c(=O)c(-c2c(Cl)cccc2Cl)cc2cnc(Nc3cccc(S(N)(=O)=O)c3)nc21` [Compound 4, 6-(2,6-Dichlorophenyl)-8-methoxy-2-(3-sulfamoylphenylamino)-pyrido[2,3-d]pyrimidin-7-one]: the half-inhibitory concentration (IC50) in test [1] was under 100 nM; on B-Raf delta1-415, under 500 nM; in the test on HT-29 tumor cells, under 1000 nM.
In the same order, the values of `COn1c(=O)c(-c2c(F)cccc2C(F)(F)F)cc2cnc(Nc3ccc(N4CCN(C)CC4)cc3)nc21` [Compound 53, 6-(2-Fluoro-6-trifluoromethyl-phenyl)-8-methoxy-2-(4-(4-methylpiperazino)-phenylamino)-pyrido[2,3-d]pyrimidin-7-one] are under 1000 nM, under 1000 nM and under 1000 nM.
For the compound `COc1cccc(Nc2ncc3cc(-c4c(Cl)cccc4Cl)c(=O)n(OCCO)c3n2)c1` [Compound 73, 6-(2,6-Dichlorophenyl)-8-(2-hydroxyethyl)oxy-2-(3-methoxyphenyl)amino-pyrido[2,3-d]pyrimidin-7-one], the IC50 was under 100 nM in test [1], under 100 nM on B-Raf delta1-415 and under 1000 nM with HT-29 tumor cells.
